Laboratory results as given in ChEMBL document CHEMBL5357061, “Enhanced Inhibition of Cancer Cell Migration by a Planar Catechin Analog” (ACS Med Chem Lett, 2024).
Calls of active or inactive are those of the source. No cut-off for these calls is given here.

Experiments:
RGM1 = test: Inhibition of cell migration in rat RGM1 cells assessed as reduction in healing of scratched areas at 200 uM measured after 12 hrs by scratch-wound healing assay; format: functional, cell-based
RGK1 = test: Inhibition of cell migration in rat RGK1 cells assessed as reduction in healing of scratched areas at 200 uM measured after 12 hrs by scratch-wound healing assay; format: functional, cell-based

Structure (SMILES): CC1(C)O[C@H]2Cc3c(O)cc(O)cc3O[C@@H]2c2cc(O)c(O)cc21
- inhibition (RGM1): Active
- inhibition (RGK1): Active

Structure (SMILES): Oc1cc(O)c2c(c1)O[C@H](c1ccc(O)c(O)c1)[C@@H](O)C2
- inhibition (RGM1): inactive
- inhibition (RGK1): inactive
